Key:
Zymoseptoria tritici = assay: Leaf blotch of wheat (SEPTTR) disease control on wheat seedlings; assay type: in vivo; parameters: key to SEPTTR 1DP, HV activity at 100 ppm (% control rating) / SEPTTR 3DC, HV activity at 100 ppm (% control rating) / SEPTTR disease control, 1DP / SEPTTR disease control, 3DC / SEPTTR 1DP disease control rating, HV activity / SEPTTR 3DC disease control rating, HV activity / SEPTTR 3DC, LV activity at 125.1 g/H (% Control rating) / SEPTTR 1DP, LV activity at 125.1 g/H (% Control rating) / SEPTTR 1DP disease control rating, LV activity at 125.1 g/H / SEPTTR 3DC disease control rating, LV activity at 125.1 g/H / SEPTTR 3DC disease control rating, HV activity at 100 ppm / SEPTTR 1DP disease control rating, HV activity at 100 ppm / HV activity at 100 ppm SEPTTR 3DC (disease control rating) / HV activity at 100 ppm SEPTTR 1DP (disease control rating) / LV activity at 125.1 g/H SEPTTR 1DP (disease control rating) / LV activity at 125.1 g/H SEPTTR 3DC (disease control rating): A: > 80; B: ≤ 80; C: Not Tested; D: No Activity Observed in the Reported Assay; conditions: for SEPTTR 1DP disease control rating, HV activity / SEPTTR 3DC disease control rating, HV activity: HV application at 100 ppm; for SEPTTR 1DP disease control rating, LV activity at 125.1 g/H: 1 day protectant; for SEPTTR 3DC disease control rating, LV activity at 125.1 g/H: 3 day curative
Puccinia triticina = assay: Wheat brown rust (PUCCRT) disease control on wheat seedlings; assay type: in vivo; parameters: key to PUCCRT 3DC, HV activity at 100 ppm (% control rating) / PUCCRT disease control, 3DC / PUCCRT 1DP disease control rating, HV activity / PUCCRT 3DC disease control rating, HV activity / PUCCRT 3DC, LV activity at 125.1 g/H (% Control rating) / PUCCRT 1DP, LV activity at 125.1 g/H (% Control rating) / PUCCRT 3DC disease control rating, LV activity at 125.1 g/H / PUCCRT 1DP disease control rating, LV activity at 125.1 g/H / PUCCRT 3DC disease control rating, HV activity at 100 ppm / PUCCRT 1DP disease control rating, HV activity at 100 ppm / HV activity at 100 ppm PUCCRT 3DC (disease control rating) / LV activity at 125.1 g/H PUCCRT 1DP (disease control rating) / LV activity at 125.1 g/H PUCCRT 3DC (disease control rating): A: > 80; B: ≤ 80; C: Not Tested; D: No Activity Observed in the Reported Assay; conditions: for PUCCRT 1DP disease control rating, HV activity / PUCCRT 3DC disease control rating, HV activity: HV application at 100 ppm; for PUCCRT 1DP disease control rating, LV activity at 125.1 g/H: 1 day protectant; for PUCCRT 3DC disease control rating, LV activity at 125.1 g/H: 3 day curative
[1] = low volume application, 125.1 g/H, 1 Day Protectant
[2] = low volume application, 125.1 g/H, 3 Day Curative
[3] = 1 Day Protectant, wheat leaf blotch
[4] = 3 Day Curative, wheat leaf blotch
[5] = 1 Day Protectant, wheat brown rust
[6] = 3 Day Curative, wheat brown rust
[7] = low volume application, 125.1 g/H

Row | Structure (SMILES) | SEPTTR 1DP disease control rating, HV activity (Zymoseptoria tritici; [3]) | SEPTTR 3DC disease control rating, HV activity (Zymoseptoria tritici; [4]) | PUCCRT 1DP disease control rating, HV activity (Puccinia triticina; [5]) | PUCCRT 3DC disease control rating, HV activity (Puccinia triticina; [6]) | SEPTTR 1DP disease control rating, LV activity at 125.1 g/H (Zymoseptoria tritici; [7]) | SEPTTR 3DC disease control rating, LV activity at 125.1 g/H (Zymoseptoria tritici; [7]) | PUCCRT 1DP disease control rating, LV activity at 125.1 g/H (Puccinia triticina; [7]) | PUCCRT 3DC disease control rating, LV activity at 125.1 g/H (Puccinia triticina; [7]) | further results
1 | COc1ccnc(C(=O)N[C@@H](C)C(=O)O[C@@H](C)[C@H](Oc2ccc(C(F)(F)F)cc2)C(C)C)c1OC(C)=O [Cmpd 629] | – | – | – | – | – | – | – | – | SEPTTR 1DP, LV activity at 125.1 g/H (% Control rating) (Zymoseptoria tritici; [1]): B (≤ 80); SEPTTR 3DC, LV activity at 125.1 g/H (% Control rating) (Zymoseptoria tritici; [2]): B (≤ 80); PUCCRT 1DP, LV activity at 125.1 g/H (% Control rating) (Puccinia triticina; [1]): A (> 80); PUCCRT 3DC, LV activity at 125.1 g/H (% Control rating) (Puccinia triticina; [2]): A (> 80)
2 | CCC(CC)[C@@H](Oc1cccc(F)c1)[C@H](C)OC(=O)[C@@H](NC(=O)c1nccc(OC)c1O)C(C)C [Cmpd 404] | A (> 80) | D | B (≤ 80) | D | – | – | – | – | –
3 | COc1ccnc(C(=O)NC(C)C(=O)OC(C)C(Oc2ccccc2)c2ccccc2)c1OC(C)=O (stereo not shown) [Cmpd 870] | – | – | – | – | A (> 80) | A (> 80) | A (> 80) | B (≤ 80) | –
4 | CC[C@@H](CCOC)[C@@H](Oc1ccccc1)[C@H](C)OC(=O)[C@@H](C)NC(=O)c1nccc(OC)c1O [Cmpd 308] | D | B (≤ 80) | D | D | – | – | – | – | –
5 | COc1ccnc(C(=O)NC(C)C(=O)OC(C)(C)C(Oc2ccccc2)C(C)C)c1OCOC(C)=O (mixture of isomers) [Cmpd 903] | – | – | – | – | B (≤ 80) | A (> 80) | B (≤ 80) | D | –
6 | CCC(CC)[C@@H](Oc1ccc(F)cc1)[C@H](C)OC(=O)[C@@H](NC(=O)c1nccc(OC)c1O)C(C)C [Cmpd 405] | B (≤ 80) | B (≤ 80) | A (> 80) | B (≤ 80) | – | – | – | – | –
7 | COc1ccnc(C(=O)N[C@@H](C)C(=O)O[C@@H](C)[C@H](Oc2ccc(Cl)cc2Cl)C2CCCC2)c1O [Cmpd 346] | D | B (≤ 80) | B (≤ 80) | D | – | – | – | – | –
8 | COc1ccnc(C(=O)N[C@@H](C)C(=O)O[C@@H](C)[C@@H](CC(C)C)OCC(C)C)c1O [Cmpd 1044] | – | – | – | – | – | – | – | – | HV activity at 100 ppm SEPTTR 1DP (disease control rating) (Zymoseptoria tritici; HV application, 100 ppm, 1 Day Protectant, wheat leaf blotch): B (≤ 80); HV activity at 100 ppm SEPTTR 3DC (disease control rating) (Zymoseptoria tritici; HV application, 100 ppm, 3 Day Curative, wheat leaf blotch): A (> 80); HV activity at 100 ppm PUCCRT 1DP (disease control rating) (Puccinia triticina; HV application, 100 ppm, 1 Day Protectant, wheat brown rust): A (> 80); HV activity at 100 ppm PUCCRT 3DC (disease control rating) (Puccinia triticina; HV application, 100 ppm, 3 Day Curative, wheat brown rust): A (> 80)
9 | CCC(CC)C(Oc1ccc(Cl)cc1)C(C)OC(=O)C(C)NC(=O)c1nccc(OC)c1OC(C)=O (stereo not shown) [Cmpd 674] | – | – | – | – | A (> 80) | A (> 80) | A (> 80) | B (≤ 80) | –
10 | COc1ccnc(C(=O)N[C@@H](C)C(=O)O[C@@H](C)[C@@H](Cc2ccccc2)OC)c1O [Cmpd 342] | D | B (≤ 80) | B (≤ 80) | A (> 80) | – | – | – | – | –

Source: US20180000085A1, “USE OF PICOLINAMIDE COMPOUNDS WITH FUNGICIDAL ACTIVITY” (DOW AGROSCIENCES LLC, priority 2014, published 2018)
